Patent publication US4925835A, “Aziridinyl putrescine containing compositions and their uses in treating prostate cancer” (priority 1987, dated 1990)
Read-outs that look alike come from different tables or passages of the source.

Key:
[1] = test system: PC-3 human prostatic carcinoma cell line; assay: cells; assay type: cell-based; details: for Cell number as a percentage of the control mean cell number / Cell no.: 1 μM AZP; for Cell no.: mean ± SE; for activity at 1 µM / EC50: Homo sapiens, Prostatic carcinoma cell; for activity at 1 µM: 192 h
Description: FIG. 3. Effect of AZP on the growth of PC-3 cells with or without DFMO pretreatment. PC-3 cells (3×10^4) were plated in 60-mm^2 Petri dish in RPMI 1640-10% FCS and allowed to attach overnight. The following day the medium was aspirated and replaced with RPMI 1640, 10% FCS, 100 μM aminoguanidine with or without 1 mm DFMO. Forty-eight h later the medium was aspirated, the dishes were rinsed once with HBSS, and the cells were incubated with RPMI 1640-10% FCS-100 μM aminoguanidine with or without 25 μM AZP for 1 h. Following the 1-h incubation the medium was aspirated, the plates were rinsed twice with HBSS, and the incubation was continued with fresh RPMI 1640-10% FCS-100 μM aminoguanidine. At the indicated times following initial plating the cells were lifted from the plate by trypsinization and were examined for their ability to exclude trypan blue. Total cell counts were obtained with the aid of a hemocytometer, and the completeness of the removal of the cells from the dish was verified by the examination of each dish with the inverted microscope. , control; Δ, DFMO; .circle., AZP; .quadrature., DFMO+AZP. Points, means; bars, SE.
FIG. 4. Dose-effect relationship of AZP on the growth on PC-3 prostatic cancer cells. PC-3 cells (3×10^4) were plated in RPMI 1640-10% FCS in 60-mm^2 Petri dishes and allowed to attach overnight. The following day the medium was aspirated and replaced with RPMI 1640-10% FCS-100 μM aminoguanidine with or without 1 mm DFMO. Forty-eight h later the medium was aspirated, and the cells were rinsed once with HBSS and replaced with RPMI 1640-10% FCS-100 μM aminoguanidine with or without the indicated μM concentrations of AZP. After a 1-h incubation the medium was aspirated, the cells were rinsed twice with HBSS, and the incubation was continued with fresh RPMI 1640-10% FCS-100 μM aminoguanidine. Eight days following plating the cells were lifted from the plates by trypsinization and were counted with the aid of a hemocytometer and expressed as a percentage of control (100% without DFMO, 212±31×10^4; 100% with DFMO pretreatment, 219±25× 10^4 cells, respectively). , DFMO pretreated; .circle., without DFMO.
Assays of cell growth were performed by plating 3×10^4 PC-3 cells in RPMI 1640 medium with 10% FCS and allowing them to attach overnight. The following morning the medium was replaced with incubation medium consisting of RPMI 1640, 10% FCS, 100 μM aminoguanidine, 100 units/ml of penicillin, 100 μg/ml of streptomycin, and 2 mM glutamine, with or without 1 mM difluoromethylornithine. Two days later the medium was aspirated and replaced with or without 1-(4-aminobutyl) aziridine at the designated concentration usually for 1 h or for the designated length of time. Following the 1-h incubation, the medium of all groups was aspirated and the dishes were rinsed with HBSS and replaced with fresh incubation medium. Either daily or 8 days following plating, the Petri dishes were rinsed with HBSS and the cells were lifted from the plate by trypsinization. The dishes were examined for completeness of cell removal by examination with an inverted microscope. The cells were counted with a Zeiss microscope using a hemocytometer. Tumor cell population doubling time was determined by ploting the natural logarithm (ln) of the number of cells versus the days following plating. The slope of this line was determined using the Memorial Sloan-Kettering Cancer Center Clin computer system statistical analysis package. Doubling time (DT) was determined as ln 2/slope=DT. Statistical differences in cell number between groups were determined by Student's t statistic with the aid of the Memorial Sloan-Kettering Cancer Center Clin computer using the statistics program.
^a Thirty thousand PC3 cells were plated in 60mm^2 Petri dishes i
RPMI 164010% FCS. The next day the medium was aspirated and replaced with
RPMI 164010% FCS medium with 100 μM aminoguanidine with or without 1 m
DFMO. Fortyeight h later the medium was aspirated. […]

[2] = test system: normal rat prostate; assay: In vivo antiprostatic activity, prostate wet weight; details: Copenhagen rats
Description: 1-(4-aminobutyl) aziridine, difluoromethylornithine, and a combination of 1-(4-aminobutyl) aziridine and difluoromethylornithine were tested in vivo for antiprostatic activity using Copenhagen rats. The normal rat prostate is often used as a model or control for drugs which are suspected of having antiprostatic cancer activity. Sloan, et al., Cancer Chemother. Rep. 59: 185-194 (1975). 1-(4-aminobutyl) aziridine, difluoromethylornithine, and a combination of 1-(4-aminobutyl) aziridine and difluoromethylornithine were administered to twenty-eight (28) Copenhagen rats for 14 days. 1-(4-aminobutyl) aziridine was administered by an infusion mini-pump implanted intraperitoneally.
Difluoromethylornithine was administered orally. The 1-(4-aminobutyl) aziridine was delivered at a rate of 2 mg/kg/day. A similar amount of difluoromethylornithine was administered orally on a daily basis. Before loading the infusion pump, the pH of 1-(4-aminobutyl) aziridine was adjusted to 7.5 with hydrochloric acid. The pump rate was 0.5 u./hr.
The prostates of the twenty-eight (28) subjects were removed, freed of fat and weighed to the nearest milligram.

[3] = 2 h incubation, DFMO pretreated, day 8
[4] = 4 h incubation, DFMO pretreated, day 8
[5] = 14 days, AZP 2 mg/kg/day by intraperitoneal infusion mini-pump, DFMO similar amount orally

NCCCCN1CC1 [AZP, 1-(4-aminobutyl) aziridine] was tested. Which “Cell number as a percentage of the control mean cell number” value (from here on “Cell number as a percentage”) ([1]; 1 h incubation, DFMO pretreated, day 8) did it give?
The value was 73%.

What about the Cell no. ([1]; 1 h incubation, no DFMO (Control), day 8) of the same compound?
The Cell no. was 236 ± 8 × 10^-4.

And the “Cell number as a percentage” value [1, 3]?
The value was 52%.

And the Cell no. [1, 3]?
The Cell no. was 114 ± 10 × 10^-4.

And the Cell no. ([1]; 2 h incubation, no DFMO (Control), day 8)?
Its Cell no. is 202 ± 11 × 10^-4.

And the “Cell number as a percentage” value [1, 4]?
The value was 32%.

And the Cell no. [1, 4]?
Its Cell no. is 70 ± 8 × 10^-4.

What about the “Cell number as a percentage” value ([1]; 8 h incubation, DFMO pretreated, day 8) of the same compound?
The value was roughly 9%.

What about the Cell no. ([1]; 8 h incubation, no DFMO (Control), day 8) of the same compound?
The Cell no. was 122 ± 16 × 10^-4.

What about the “Cell number as a percentage” value ([1]; 24 h incubation, DFMO pretreated, day 8) of the same compound?
Its value is 0.9%.

And the Cell no. ([1]; 24 h incubation, no DFMO (Control), day 8)?
The Cell no. was 30 ± 11 × 10^-4.

And the “Cell no. as a percentage of control” value ([1]; DFMO-pretreated PC-3 (1 mM, 48 h), single agent 1 h (Put 100 μM or AZP 10 μM), day 8)?
Its value is 9%.

And the activity at 1 µM ([1]; read-out: Cell number as a percentage of the control mean cell number, 1 μM AZP, 1 h incubation, no DFMO (Control), day 8)?
The activity at 1 µM was 98%.

What about the activity at 1 µM ([1]; read-out: Cell number as a percentage of the control mean cell number, 1 μM AZP, 2 h incubation, no DFMO (Control), day 8) of the same compound?
Its activity at 1 µM is 84%.

And the activity at 1 µM ([1]; read-out: Cell number as a percentage of the control mean cell number, 1 μM AZP, 4 h incubation, no DFMO (Control), day 8)?
Its activity at 1 µM is 66%.

And the activity at 1 µM ([1]; read-out: Cell number as a percentage of the control mean cell number, 1 μM AZP, 8 h incubation, no DFMO (Control), day 8)?
Its activity at 1 µM is 51%.

What about the activity at 1 µM ([1]; read-out: Cell number as a percentage of the control mean cell number, 1 μM AZP, 24 h incubation, no DFMO (Control), day 8) of the same compound?
Its activity at 1 µM is roughly 12%.

What about the EC50 ([1]; read-out: 50% effective dose (cell growth), PC-3, 1 h exposure, counted 8 days after plating, 1 mM DFMO pretreatment 48 h) of the same compound?
The EC50 was 2.1 µM.

What about the EC50 ([1]; read-out: 50% effective dose (cell growth), PC-3, 1 h exposure, counted 8 days after plating, without DFMO) of the same compound?
Its EC50 is 18 µM.

What about the “Cells per dish on day 8 following plating” value ([1]; PC-3, 3×10^4 plated, ±1 mM DFMO 48 h, ±25 μM AZP 1 h, mean±SD of triplicates) of the same compound?
Its value is 123±10 ×10^4 cells per dish.

What about the Doubling time ([1]; PC-3, 25 μM AZP 1 h or 1 mM DFMO 48 h, mean±SE) of the same compound?
The Doubling time was 1.53 ± 0.06 days.

What about the “Growth-inhibitory activity toward PC-3 cells (in words)” value ([1]; brief 1-h exposure) of the same compound?
Its value is “definitely growth inhibitory”.

And the “Reduction of the size of the normal ventral prostate” value ([2]; 2 mg/kg/day over a fourteen day period)?
The value was “approximately 67%”.

What about the “Animal toxicity (weight or fur loss, poor posture)” value ([2]; 2 mg/kg/day, 14 days) of the same compound?
Its value is “no evidence of animal toxicity”.

What about the “Organ toxicity on examination at sacrifice (liver, spleen, intestine, kidneys)” value ([2]; 2 mg/kg/day, 14 days) of the same compound?
Its value is “no other organs, e.g., liver, spleen, intestine, kidneys, demonstrated any evidence of toxicity”.

What about the “Effect on prostate size (in words)” value ([2]; 14 days) of the same compound?
The value was “significantly decreased the size of the normal ventral prostates”.

And the “Dorsal Lateral Prostate, milligram wet weight (SEM)” value [2, 5]?
The value was 474 ± 39 milligram.

What about the “Ventral Prostate, milligram wet weight (SEM)” value [2, 5] of the same compound?
The value was 378 ± 30 milligram.
